The source of these data is ChEMBL document CHEMBL1201862, “PubChem BioAssay data set” (2004).

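1) Cells in 96-well plates. 2) Compound, 48 h, 5 concentrations. 3) Linear interpolation between surrounding doses. 4) Unreached endpoint = highest concentration. GI50 is the concentration that inhibits growth by half.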 Active and inactive are the calls of the source. Cut-off read from the data, not from the text of the source: active = GI50 up to about 1.1 µM and inactive = higher. Some results are limits rather than exact numbers.

Among the test systems are DMS-273; M19-MEL; XF498; DLD-1; LXFL 529; HOP-18; SNB-78; DMS-114; RXF 631.
Holding throughout (test): NCI tumour cell line growth inhibition, 48 h

For the compound `COc1ccc2oc(C(=O)O)c3c2c1CCC3`, the GI50 in the test with DMS-273, with M19-MEL, in the test with XF498, in the test with DLD-1, in the test on LXFL 529 and in the test on HOP-18 was > 100 µM (inactive) throughout. For the same compound, the GI50 in the test on SNB-78 and with DMS-114 was > 100 µM (inactive) in each case.
Regarding `O=c1[nH]c2cc([N+](=O)[O-])ccc2nc1/C(=N\NO)C(O)c1ccc([N+](=O)[O-])cc1` (centres undefined), the GI50 in the test on DMS-273, in the test with M19-MEL, in the test with RXF 631, in the test on XF498, in the test on DLD-1 and with LXFL 529 was > 100 µM (inactive) in each case. Further, the results for the GI50 with SNB-78 and with DMS-114 were > 100 µM (inactive) and 32.6 µM (inactive), respectively.
As for `O=C1c2ccccc2CC1C1(O)C(=O)Nc2ccccc21` (centres undefined), the GI50 in the test with DMS-273 was > 100 µM (inactive); with M19-MEL it was > 100 µM (inactive); with RXF 631, > 100 µM (inactive); in the test on XF498, 55.6 µM (inactive); with DLD-1 it was > 100 µM (inactive); in the test with LXFL 529, > 100 µM (inactive). The GI50 in the test with SNB-78 and in the test with DMS-114 was > 100 µM (inactive) in each case.
For `CC(C)(C)NNc1c([N+](=O)[O-])cnn(-c2ccccc2)c1=O`, the GI50 with DMS-273 was 3.2 µM (inactive); with M19-MEL, 2.47 µM (inactive); with XF498, 2.55 µM (inactive); in the test with DLD-1 it was 4.56 µM (inactive); with LXFL 529, 1.78 µM (inactive); with HOP-18, 16.7 µM (inactive). The GI50 in the test with SNB-78 was 15.6 µM (inactive).
Regarding `O=C(O)CCSC(=O)Nc1ccccc1F`, the GI50 with DMS-273, in the test on LXFL 529, in the test with SNB-78 and in the test with DMS-114 was > 100 µM (inactive) throughout.
Take `Cc1c(C(=O)CC(=O)C(=O)Nc2c(C(C)C)cccc2C(C)C)[n+]([O-])c2ccccc2[n+]1[O-]`: the GI50 with DMS-273 was 3.4 µM (inactive); with M19-MEL, 1.99 µM (inactive); in the test on RXF 631 it was 3.3 µM (inactive); in the test on XF498, 3.05 µM (inactive); in the test on LXFL 529 it was 11.1 µM (inactive); in the test with SNB-78, 12.4 µM (inactive). Further, in the test on DMS-114, the GI50 is 2.59 µM (inactive).
Take `O=C1Nc2cc(F)ccc2C1=O`: the GI50 with DMS-273, in the test on M19-MEL, in the test on XF498, with DLD-1, in the test with LXFL 529 and with HOP-18 was > 100 µM (inactive) throughout. Besides, the results for the GI50 in the test on SNB-78 and in the test on DMS-114 were > 100 µM (inactive) and 50.8 µM (inactive), respectively.
`COc1cc(/C=C2\Cc3ccccc3C2=O)cc(OC)c1OC`: the GI50 with DMS-273, with M19-MEL, with RXF 631, with XF498, with DLD-1 and with LXFL 529 was > 100 µM (inactive) in each case. For the same compound, the GI50 in the test on HOP-18, in the test on SNB-78 and in the test with DMS-114 was > 100 µM (inactive) each time.
For the compound `C/C(=N\NS(=O)(=O)c1c(C)cc(C)cc1C)c1ccc[n+]([O-])n1`, the GI50 is 16.2 µM (inactive) in the test with DMS-273; 13.9 µM (inactive) in the test with M19-MEL; 27.5 µM (inactive) in the test on RXF 631; 7.16 µM (inactive) in the test on DLD-1; 11.3 µM (inactive) in the test with LXFL 529; 19.2 µM (inactive) with HOP-18. Further, the GI50 in the test on SNB-78 was 14.3 µM (inactive); in the test on DMS-114, 17.3 µM (inactive).
With `[O-][S+]1Nc2c(Cl)cc(Cl)c(Cl)c2S1` (centres undefined), the GI50 in the test on DMS-273 was > 100 µM (inactive); in the test with M19-MEL, > 100 µM (inactive); with DLD-1, 95.7 µM (inactive); with LXFL 529, > 100 µM (inactive); in the test with HOP-18 it was > 100 µM (inactive); in the test on SNB-78, > 100 µM (inactive). The GI50 with DMS-114 was 76.2 µM (inactive).
As to `CC(Nc1ccc(S(=O)(=O)NC(=N)N)cc1)c1c2ccccc2nc2ccccc12` (centres undefined), the GI50 in the test with DMS-273 is 28.3 µM (inactive); in the test with M19-MEL it was 34.4 µM (inactive); in the test with RXF 631 it was 26 µM (inactive); with XF498 it was 15.8 µM (inactive); in the test on DLD-1, 18.1 µM (inactive); in the test with LXFL 529, 28.8 µM (inactive). Also, the GI50 with DMS-114 was 31.7 µM (inactive).
Take `CC(C)(C)[C@H]1CC[C@@](O)(c2ccccc2)CC1.CC(C)(C)[C@H]1CC[C@](O)(c2ccccc2)CC1`: the GI50 with DMS-273 is 15.3 µM (inactive); with M19-MEL, 19.4 µM (inactive); with XF498, < 0.01 µM (active); in the test with DLD-1 it was 25.4 µM (inactive); in the test on LXFL 529, 21.1 µM (inactive); with HOP-18 it was 37.8 µM (inactive). In addition, the GI50 is 21.8 µM (inactive) with SNB-78 and 21.1 µM (inactive) in the test on DMS-114.
With `CC12OC3(C)OC(=O)C(c4ccccc4)(O1)C3(C)O2` (centres undefined), the GI50 in the test with DMS-273, in the test on M19-MEL, with RXF 631, in the test with DLD-1, in the test with LXFL 529 and in the test on HOP-18 was > 100 µM (inactive) in each case. The GI50 in the test on SNB-78 and in the test with DMS-114 was > 100 µM (inactive) throughout.
For the compound `NC(=O)CCC(Nc1c2ccccc2[n+]([O-])c2ccccc12)C(=O)O` (centres undefined), the GI50 in the test with DMS-273 is 65 µM (inactive); in the test on M19-MEL, 77.3 µM (inactive); in the test with DLD-1, 27.8 µM (inactive); with LXFL 529, 31 µM (inactive); with HOP-18, 16 µM (inactive); in the test on SNB-78, > 100 µM (inactive). Besides, in the test on DMS-114, the GI50 is 37.1 µM (inactive).
Take `CC(C)(C)C1CCN(C(=O)c2ccccc2)CC1`: the GI50 in the test with DMS-273 is > 100 µM (inactive); in the test on M19-MEL, > 100 µM (inactive); in the test with XF498 it was < 0.01 µM (active); in the test on DLD-1 it was > 100 µM (inactive); in the test on LXFL 529, 70 µM (inactive); with HOP-18, 84.1 µM (inactive). Moreover, the GI50 in the test with SNB-78 was > 100 µM (inactive); with DMS-114 it was 28.8 µM (inactive).
Take `O=c1/c(=C/c2cccc([N+](=O)[O-])c2)sc2nc3ccccc3n12`: the GI50 with DMS-273, in the test on M19-MEL, in the test on XF498, in the test with DLD-1, with LXFL 529 and in the test on SNB-78 was > 100 µM (inactive) in each case. The GI50 in the test with DMS-114 is > 100 µM (inactive).
For the compound `C/C(=N\N)C(CN1CCOCC1)C(c1ccccc1)c1c(O)c2ccccc2oc1=O` (centres undefined), the GI50 with DMS-273, in the test with M19-MEL, in the test with DLD-1, in the test on LXFL 529, in the test with SNB-78 and in the test on DMS-114 was > 100 µM (inactive) each time.
Take `O=C(CC(=O)c1cccc([N+](=O)[O-])c1)C(=O)Nc1nc([N+](=O)[O-])cs1`: the GI50 in the test on DMS-273 is > 100 µM (inactive); in the test on M19-MEL, > 100 µM (inactive); with RXF 631 it was > 100 µM (inactive); in the test with DLD-1, > 100 µM (inactive); in the test on LXFL 529, 60.1 µM (inactive); in the test on HOP-18, > 100 µM (inactive). In addition, the GI50 with SNB-78 and in the test with DMS-114 was > 100 µM (inactive) in each case.
Consider `Cc1ccc2oc(=O)cc(CC(=O)O)c2c1`, for which the GI50 in the test on DMS-273 was > 100 µM (inactive); in the test on M19-MEL, > 100 µM (inactive); with RXF 631, > 100 µM (inactive); in the test with XF498, 24.5 µM (inactive); with DLD-1, > 100 µM (inactive); in the test on LXFL 529, > 100 µM (inactive). In addition, in the test on HOP-18, the GI50 is > 100 µM (inactive).
For `O=C(O)CCC1c2[nH]c3ccccc3c2CCN1Cc1ccccc1` (centres undefined), the GI50 in the test on DMS-273, with M19-MEL, in the test with RXF 631, in the test on DLD-1, with LXFL 529 and with HOP-18 was > 100 µM (inactive) in each case. Further, the GI50 in the test with SNB-78 and with DMS-114 was > 100 µM (inactive) each time.
Regarding `C1=Cc2nc1c(-c1ccccc1)c1ccc([n-]1)c(-c1ccccc1)c1nc(c(-c3ccccc3)c3ccc([n-]3)c2-c2ccccc2)C=C1.[Zn+2]`, the GI50 with M19-MEL was > 100 µM (inactive); in the test on RXF 631, > 100 µM (inactive); in the test on XF498 it was > 100 µM (inactive); in the test with DLD-1, 70.1 µM (inactive); with LXFL 529, > 100 µM (inactive); in the test with SNB-78, > 100 µM (inactive). Besides, the GI50 in the test with DMS-114 is > 100 µM (inactive).
Consider `COc1ccc(/N=N/c2c(-c3ccccc3)nn(C(=O)CC(=O)Nc3ccc(OC)cc3)c2-c2ccccc2)cc1`, for which the GI50 was > 100 µM (inactive) with DMS-273; > 100 µM (inactive) in the test with M19-MEL; 59.3 µM (inactive) in the test with RXF 631; 27 µM (inactive) in the test with XF498; > 100 µM (inactive) with DLD-1; 60.5 µM (inactive) in the test on LXFL 529. The GI50 was 84.3 µM (inactive) in the test with HOP-18, 34.6 µM (inactive) in the test with SNB-78 and 60 µM (inactive) in the test with DMS-114.
`O=C1NC(=O)C(=O)C(c2nc3ccccc3s2)C1=O`: the GI50 in the test on DMS-273, with M19-MEL, with XF498, with DLD-1, in the test on LXFL 529 and in the test with HOP-18 was > 100 µM (inactive) in each case. Further, the GI50 with SNB-78 and in the test with DMS-114 was > 100 µM (inactive) throughout.
As to `O=P(NC12CC3CC(CC(C3)C1)C2)(N1CC1)N1CC1`, the GI50 was 6.07 µM (inactive) with DMS-273; > 100 µM (inactive) in the test with M19-MEL; 80.5 µM (inactive) with DLD-1; 64.4 µM (inactive) in the test on LXFL 529; > 100 µM (inactive) in the test with HOP-18; > 100 µM (inactive) in the test with SNB-78. Further, the GI50 with DMS-114 was 50.9 µM (inactive).
